This assay addresses Rac1 (Homo sapiens, UniProt P63000). As to the kind of experiment: Guanine nucleotide exchange of [3H]GDP-loaded GTPase with 6-TGDP (FIG. 13A). Type of assay: binding. On the set-up: made in house; host or cells: E. coli. As to the method:
FIG. 13. Guanine nucleotide exchange of small GTPases with 6-TGDP. (A) To monitor 6-TGDP-mediated GTPase GDP dissociation, [^3H]GDP-loaded GTPase (1 μM) was incubated with 6-TGDP (0-2000 μM) for 1 h. (B) To monitor GTPase 6-TGDP dissociation by GDP (0-2000 μM) in the presence and absence of dithiothreitol (DTT), 6-TGDP-loaded GTPase (˜1 μM) was treated with .NO2 (˜3 μM) under anaerobic conditions and was incubated with various concentrations of [^3H]GDP (0-2000 μM) in the presence and absence of DTT (10 mM) for 1 h. For all assays, aliquots were withdrawn and spotted onto nitrocellulose filters. The filters were then washed three times with an assay buffer, and radioactivity was determined using a Beckman-Coulter scintillation counter. The resultant radioactivity (dpm) values associated with GTPase-bound [^3H]GDP were converted into the fraction of mol nucleotide per mol total GTPase. The data presented represent mean and standard error values from triplicate measurements. The apparent dissociation constants (appKD values) of GTPase 6-TGDP association ([^3H]GDP dissociation, A); and 6-TGDP dissociation ([3H]GDP association, B) were obtained by fitting the data to a simple dissociation and association, respectively. (A) The ^appKD values of Ras, RhoC, RhoA and Rac1 for 6-TGDP, are, respectively, 2300, 230, 224, and 245 μM [6-TGDP]. (B) The appKD values of RhoC with and without DTT are, respectively, 560, and 1000 μM [[^3H]GDP], whereas the ^appKD values of Ras with and without DTT are 530, and 520 μM [[^3H]GDP], respectively. The standard errors of each ^appKD value are less than 10% of their given values, and regression values associated with the fit were r^2>0.9560.
A kinetic assay method using radiolabeled GDP ([^3H]GDP) was established. The apparent dissociation constants (^appKD 6-TGDP) of Rho GTPases (including RhoA, Cdc42, and Rac1/2/3) and Ras with 6-TGDP were determined (FIG. 13). The results of this preliminary kinetic study provided strong support for the mechanism proposed for the role of 6-TGNP in RhoC inactivation (FIG. 7).
The true dissociation constant (^trueKD 6-TGDP) of Ras, RhoC, RhoA and Rac1 for 6-TGDP was then calculated to be ˜20.7 pM, 212 μM, 208 μM, and 158 μM [6-TGDP] by using a compensation equation, ^trueKD 6-TGDP=^appKD 6-TGDP/(1+[GDP]/^trueKD GDP) (95), in conjunction with the values given [(^appKD 6-TGDP of Ras, RhoC, RhoA, and Rac1=2300, 230, 224, and 245 μM (FIG. 13) and ^trueKD GDP=9 pM, 12 μM, 13 μM and 1.8 μM, respectively. The ^trueKD GDP of Ras, RhoA and Rac1 was determined previously (Lenzen et al. Biochemistry 37, 7420-7430 (1998); Heo et al. Biochemistry 44, 6573-6585 (2005)) and the ^trueKD GDP of RhoC was further determined. Example: ^trueKD 6-TGDP for Ras=2300 μM/(1+1 μM GDP/[…])=[…] [6-TGDP]].

Drawing on patent US8729047B2, “Compositions for inhibiting redox-sensitive GTPases” (Board of Regents, The University of Texas System, priority 2010, dated 2014), this text covers Kd for one compound.

SMILES strings stand for the structures. Where two headings read alike, the source gives them in different places.

As to `Nc1nc2c(ncn2[C@@H]2O[C@H](COP(=O)(O)OP(=O)(O)O)[C@@H](O)[C@H]2O)c(=S)[nH]1` [6-TGDP, 6-thioguanosine diphosphate], the Kd runs as follows: ([3H]GDP-loaded GTPase 1 μM, 6-TGDP 0-2000 μM, 1 h, FIG. 13A, read-out: appKD for 6-TGDP) 245 µM; (calculated by compensation equation from appKD 6-TGDP and trueKD GDP, read-out: trueKD 6-TGDP) 158 µM.
